Assay results from patent US4241069A, “3-Methylene flavanones and 3-methylene chromanones” (Miles Laboratories, Inc., priority 1979, dated 1980).
Values after ≈ are worked out from the molar mass of the structure shown.

Columns and labels:
S. aureus NRRL B2747 = experiment: MIC, agar incorporation method; assay type: cell-based, Staphylococcus aureus; conditions: Staphylococcus aureus, NRRLB2747, 32° C., 24 hours, read-out: Minimal Inhibitory Concentration
Method: (§1) The compounds of the present invention were tested for their ability to inhibit the growth of microorganisms by in vitro tests. Generally the in vitro tests involve growing representative microorganisms under conditions favorable to such growth and measuring the effectiveness of one or more compounds in inhibiting or destroying the growth of the microorganisms. The microorganisms used include representative bacteria, fungi and yeasts.
(§2) A representative selection of the test microorganisms were cultured in a nutrient broth, such as, for example, Eugon, commercially available from Difco Laboratories, Detroit, Michigan. Bacteria and Candida species were cultured for 24 hours at 32°-37° C. and fungi were cultured for approximately one week at 32° C. Inocula were prepared by suspending the growth or spores from a slant culture in sufficient sterile normal (0.9 percent) saline or Eugon broth, to yield cell or spore concentrations of 1,000,000 cells per milliliter. Anaerobic bacteria were cultured for 48-72 hours at 32°-37° C. in a thioglycollate containing medium, for example, Fluid Thioglycollate medium or NIH thioglycollate broth, commercially available from Difco Laboratories.
(§3) The compounds of the present invention were tested for activity against bacteria, yeasts and fungi by the agar incorporation method described below. MA 1347, 3-(dimethylaminomethyl)flavanone (disclosed in U.S. Pat. No. 3,753,985) was used as a comparative standard along with controls for each solvent system used.
(§4) A series of agar plates containing two-fold dilutions of each compound to be tested, ranging in concentration from 100 to 3.1 mcg/ml of agar medium was prepared. Aliquots of each concentration (100, 50, 25, 12.5, 6.2, and 3.1) prepared in N,N-dimethylformamide or 50 percent aqueous DMF were added to liquid Eugon agar at 48° C. (one part test solution to 100 parts agar). In some cases, tests with further dilutions to 0.125 mcg/ml were conducted. The agar medium, containing the 3-methylene flavanone or chromanone compound to be tested, was then dispensed into petri dishes and allowed to solidify. The solidified plates were kept overnight at room temperatures to dry the surface of the agar.
(§5) The agar plates were then inoculated with a drop of the standardized cell or spore suspension. Inoculated plates were incubated at 32° C. The inhibition end-point or minimum inhibitory concentration (MIC) shown in Table D represent the lowest concentration of test compound which inhibited the growth of the microorganism. Visual determination of growth inhibition was used. Bacteria and yeast end-points were determined after 24 hours incubation; molds, dermatophytes and anaerobes after 48-72 hours incubation. MIC values shown as ranges represent the extremes found in repeat assays. Virtually all such values were written plus or minus one dilution, the accepted variation of a two-fold dilution assay.

[1] = system: Aspergillus niger ATCC 16404; experiment: MIC, agar incorporation method; assay type: cell-based; conditions: ATCC16404, 32° C., 48-72 hours, read-out: Minimal Inhibitory Concentration
Method: as §1, §2, §3, §4, §5

[2] = system: Candida albicans ATCC 10231; experiment: MIC, agar incorporation method; assay type: cell-based; conditions: ATCC10231, C. albicans ATCC 10231, 32° C., 24 hours, read-out: Minimal Inhibitory Concentration
Method: as §1, §2, §3, §4, §5

[3] = system: Pseudomonas aeruginosa ATCC 14502; experiment: MIC, agar incorporation method; assay type: cell-based; conditions: ATCC14502, 32° C., 24 hours, read-out: Minimal Inhibitory Concentration
Method: as §1, §2, §3, §4, §5

C. tropicalis NRRL Y1410 = experiment: MIC, agar incorporation method; assay type: cell-based; conditions: Candida tropicalis, NRRLY1410; 32° C., 24 hours; read-out: Minimal Inhibitory Concentration
Method: as §1, §2, §3, §4, §5

[4] = system: Microsporum gypseum ATCC 14683; experiment: MIC, agar incorporation method; assay type: cell-based; conditions: Nannizzia gypsea, ATCC14683, 32° C., 48-72 hours; read-out: Minimal Inhibitory Concentration
Method: as §1, §2, §3, §4, §5

T. rubrum ATCC 10218 = experiment: MIC, agar incorporation method; assay type: cell-based; conditions: Trichophyton rubrum, ATCC10218; 32° C., 48-72 hours; read-out: Minimal Inhibitory Concentration
Method: as §1, §2, §3, §4, §5

[5] = system: Escherichia coli ATCC 8739; experiment: MIC, agar incorporation method; assay type: cell-based; conditions: ATCC8739, 32° C., 24 hours, read-out: Minimal Inhibitory Concentration
Method: as §1, §2, §3, §4, §5

T. mentagrophytes TM-2 = experiment: MIC, agar incorporation method; assay type: cell-based; conditions: Trichophyton mentagrophytes, TM2, 32° C., 48-72 hours, read-out: Minimal Inhibitory Concentration
Method: as §1, §2, §3, §4, §5

[6] = system: Trichophyton mentagrophytes ATCC 4807; experiment: MIC, agar incorporation method; assay type: cell-based; conditions: ATCC4807, 32° C., 48-72 hours, read-out: Minimal Inhibitory Concentration
Method: as §1, §2, §3, §4, §5

A. fumigatus NRRL 165 = experiment: MIC, agar incorporation method; assay type: cell-based; conditions: Aspergillus fumigatus, NRRL165, 32° C., 48-72 hours, read-out: Minimal Inhibitory Concentration
Method: as §1, §2, §3, §4, §5

C. albicans NRRL Y-477 = experiment: MIC, agar incorporation method; assay type: cell-based; conditions: Candida albicans, NRRLY477, 32° C., 24 hours, read-out: Minimal Inhibitory Concentration
Method: as §1, §2, §3, §4, §5

C. krusei VM 29B = experiment: MIC, agar incorporation method; assay type: cell-based; conditions: Pichia kudriavzevii, VM29B; 32° C., 24 hours; read-out: Minimal Inhibitory Concentration
Method: as §1, §2, §3, §4, §5

T. mentagrophytes CDC = experiment: MIC, agar incorporation method; assay type: cell-based; conditions: Trichophyton mentagrophytes, 32° C., 48-72 hours, read-out: Minimal Inhibitory Concentration
Method: as §1, §2, §3, §4, §5

C. guillermondii VM 42 = experiment: MIC, agar incorporation method; assay type: cell-based; conditions: 32° C., 24 hours; read-out: Minimal Inhibitory Concentration
Method: as §1, §2, §3, §4, §5

[7] = system: Staphylococcus aureus ATCC 6538; experiment: MIC, agar incorporation method; assay type: cell-based; conditions: Staphylococcus aureus, ATCC6538; S. aureus ATCC 6538; 32° C., 24 hours; read-out: Minimal Inhibitory Concentration
Method: as §1, §2, §3, §4, §5

[8] = system: Streptococcus faecalis ATCC 10541; experiment: MIC, agar incorporation method; assay type: cell-based; conditions: Enterococcus faecalis, ATCC10541; 32° C., 24 hours; read-out: Minimal Inhibitory Concentration
Method: as §1, §2, §3, §4, §5

[9] = system: Propionobacterium acnes ATCC 6919; experiment: MIC, agar incorporation method, anaerobic; assay type: cell-based; conditions: 48 hours at 35° C., GasPak Anaerobic Jar, read-out: Minimal Inhibitory Concentration
Method: as §1, §2, §3, §4, §5
*Anaerobic: 48 hours incubation at 35° C. GasPak Anaerobic Jar

A. fumigatus NRRL 163 = experiment: MIC, agar incorporation method; assay type: cell-based; conditions: Aspergillus fumigatus, NRRL163, NRRL 163; 32° C., 48-72 hours; read-out: Minimal Inhibitory Concentration
Method: as §1, §2, §3, §4, §5

Row | Structure (SMILES) | MIC (S. aureus NRRL B2747) [µg/mL] | MIC [1] [µg/mL] | MIC [2] [µg/mL] | MIC [3] [µg/mL] | MIC (C. tropicalis NRRL Y1410) [µg/mL] | MIC [4] [µg/mL] | MIC (T. rubrum ATCC 10218) [µg/mL] | MIC [5] [µg/mL] | MIC (T. mentagrophytes TM-2) [µg/mL] | MIC [6] [µg/mL] | MIC (A. fumigatus NRRL 165) [µg/mL] | MIC (C. albicans NRRL Y-477) [µg/mL] | MIC (C. krusei VM 29B) [µg/mL] | MIC (T. mentagrophytes CDC) [µg/mL] | MIC (C. guillermondii VM 42) [µg/mL] | MIC [7] [µg/mL] | MIC [8] [µg/mL] | MIC [9] [µg/mL] | MIC (A. fumigatus NRRL 163) [µg/mL]
1 | C=C1C(=O)c2ccccc2OC1c1cccc(OC)c1 (centres unmarked) [Ex. 7, 3'-methoxy-3-methylene flavanone] | 25 (≈ 93.9 µM) | > 100 | > 100 | > 100 | > 100 | 25 (≈ 93.9 µM) | 12.5 (≈ 46.9 µM) | > 100 | 25 (≈ 93.9 µM) | 25 (≈ 93.9 µM) | > 100 | 100 (≈ 376 µM) | 100 (≈ 376 µM) | 25 (≈ 93.9 µM) | > 100 | 25 (≈ 93.9 µM) | 100 (≈ 376 µM) | – | –
2 | C=C1C(=O)c2ccccc2OC1c1ccc(OC)cc1 (centres unmarked) [Ex. 8, 4'-methoxy-3-methylene flavanone] | 12.5 (≈ 46.9 µM) | 100 (≈ 376 µM) | 100 (≈ 376 µM) | > 100 | > 100 | 12.5 (≈ 46.9 µM) | 25 (≈ 93.9 µM) | > 100 | 12.5 (≈ 46.9 µM) | 12.5 (≈ 46.9 µM) | – | 100 (≈ 376 µM) | 50 (≈ 188 µM) | 12.5 (≈ 46.9 µM) | 100 (≈ 376 µM) | 12.5 (≈ 46.9 µM) | > 100 | > 100 | 50 (≈ 188 µM)
3 | C=C1C(=O)c2ccccc2OC1c1ccc(N(C)C)cc1 (centres unmarked) [Ex. 11, 4'-dimethylamino-3-methylene flavanone] | 50 (≈ 179 µM) | > 100 | > 100 | > 100 | > 100 | 25 (≈ 89.5 µM) | 12.5 (≈ 44.7 µM) | > 100 | 25 (≈ 89.5 µM) | 25 (≈ 89.5 µM) | > 100 | > 100 | 100 (≈ 358 µM) | 25 (≈ 89.5 µM) | > 100 | 50 (≈ 179 µM) | > 100 | – | –

Stronger by MIC (S. aureus NRRL B2747), values ahead:

Row | MIC (S. aureus NRRL B2747) [µg/mL] | MIC [1] [µg/mL] | MIC [2] [µg/mL] | MIC [3] [µg/mL] | MIC (C. tropicalis NRRL Y1410) [µg/mL] | MIC [4] [µg/mL] | MIC (T. rubrum ATCC 10218) [µg/mL] | MIC [5] [µg/mL] | MIC (T. mentagrophytes TM-2) [µg/mL] | MIC [6] [µg/mL] | MIC (A. fumigatus NRRL 165) [µg/mL] | MIC (C. albicans NRRL Y-477) [µg/mL] | MIC (C. krusei VM 29B) [µg/mL] | MIC (T. mentagrophytes CDC) [µg/mL] | MIC (C. guillermondii VM 42) [µg/mL] | MIC [7] [µg/mL] | MIC [8] [µg/mL] | MIC [9] [µg/mL] | MIC (A. fumigatus NRRL 163) [µg/mL] | Structure (SMILES)
4 | 6.2 (≈ 22.9 µM) | 100 (≈ 369 µM) | 25 (≈ 92.3 µM) | > 100 | 50 (≈ 185 µM) | 6.2 (≈ 22.9 µM) | ≤ 3.1 | > 100 | 6.2 (≈ 22.9 µM) | 6.2 (≈ 22.9 µM) | 100 (≈ 369 µM) | 25 (≈ 92.3 µM) | 25 (≈ 92.3 µM) | 12.5 (≈ 46.2 µM) | 50 (≈ 185 µM) | ≤ 3.1 | 25 (≈ 92.3 µM) | – | – | C=C1C(=O)c2ccccc2OC1c1cccc(Cl)c1 (centres unmarked) [Ex. 2, 3'-chloro-3-methylene flavanone]
5 | 6.2 (≈ 19.7 µM) | 50 (≈ 159 µM) | 25 (≈ 79.3 µM) | > 100 | 25 (≈ 79.3 µM) | 6.2 (≈ 19.7 µM) | 6.2 (≈ 19.7 µM) | > 100 | 6.2 (≈ 19.7 µM) | 6.2 (≈ 19.7 µM) | 50 (≈ 159 µM) | 25 (≈ 79.3 µM) | 25 (≈ 79.3 µM) | 12.5 (≈ 39.7 µM) | 25 (≈ 79.3 µM) | ≤ 3.1 | 25 (≈ 79.3 µM) | – | – | C=C1C(=O)c2ccccc2OC1c1ccc(Br)cc1 (centres unmarked) [Ex. 6, 4'-bromo-3-methylene flavanone]
